Results taken from patent US10584133B2, “Thienopyrimidinone compounds” (BioTheryX, Inc., priority 2018, dated 2020).

Tests used:
GSPT1 = GSPT1 degradation assay (Western blot, MV-4-11 cells); type: cell-based; settings: 6-8 hours
Experimental: (§1) MV-4-11 cells were grown in RPMI 1640 media supplemented with 10% fetal bovine serum, streptomycin and penicillin.
(§2) Cells were cultured at approximately 10^6 cells per mL and incubated in DMSO or the indicated compounds for 6-8 hours. Whole cell extracts were prepared using RIPA buffer according to manufacturer's protocol (Pierce). Briefly, 3×10^6 cells were washed once in PBS, the cell pellets were resuspended in RIPA buffer and allowed to incubate for 15 minutes on ice. Cells debris was removed by centrifugation and the cleared whole cell lysates were transferred to new tubes for further analysis.
(§3) For Western blot analysis, whole cell protein extracts were separated on 4-12% SDS-polyacrylamide gels, transferred to nitrocellulose and probed with the indicated primary antibodies. Membranes were subsequently washed and probed with the appropriate IRDye secondary antibodies (LI-COR). The signal was detected using the Odyssey Imaging System (LI-COR).
(§4) The following antibodies were used in these studies: Anti-eRF3/GSPT1: Abcam, ab126090 (Cambridge, Mass.); Anti-Ikaros: Abcam, ab191394 (Cambridge, Mass.); Anti-CK1α: Abcam, ab108296 (Cambridge, Mass.); Anti-PDE6D: Santa Cruz Biotechnology, sc-166854 (Dallas, Tex.); β-actin (8H10D10) mouse monoclonal antibody: Cell Signaling Technology, #3700 (Danvers, Mass.); IRDye 680RD Goat anti-rabbit antibody: LI-COR, 926-68071 (Lincoln, Nebr.); IRDye 800CW Goat anti-mouse antibody: LI-COR, 926-32210 (Lincoln, Nebr.).

IKAROS = target: T1, IKAROS (Homo sapiens, UniProt Q13422+Q96SW2); experiment: IKAROS degradation assay (Western blot, MV-4-11 cells); type: cell-based; settings: 6-8 hours
T1 construct: endogenous in cells; host or cells: MV-4-11
Experimental: as §1, §2, §3, §4

PDE6D = target: T2, PDE6D (Homo sapiens, UniProt O43924+Q96SW2); experiment: PDE6 degradation assay (Western blot, MV-4-11 cells); type: cell-based; settings: 6-8 hours
T2 construct: Whole cell extracts were prepared using RIPA buffer; endogenous in cells; host or cells: MV-4-11
Experimental: as §1, §2, §3, §4

MV-4-11 cells = experiment: MV-4-11 cell viability assay (CellTiter-Glo); type: cell-based; settings: 3 days
Experimental: MV-4-11 cells were cultured in RPMI 1640 media supplemented with 10% fetal bovine serum, streptomycin and penicillin, and were plated in white walled 96-well plates at 2500 cells/well. Cells were incubated in DMSO (control) or the indicated compounds for 3 days at 37° C. and 5% CO2. Following the incubation period, 100 μL of CellTiterGlow (CTG) reagent (CellTiter-Glo® Luminescent Cell Viability Assay, Promega (Madison, Wis.)) was added to each well. Following a 10 minutes incubation with shaking, luminescence was measured using the EnVision Multimode plate reader.

CK1α = target: T3, CK1α (Homo sapiens, UniProt P48729+Q96SW2); experiment: CK1α degradation assay (Western blot, MV-4-11 cells); type: cell-based; settings: 6-8 hours
T3 construct: Whole cell extracts were prepared using RIPA buffer; endogenous in cells; host or cells: MV-4-11
Experimental: as §1, §2, §3, §4

Helios = target: T4, Helios (Homo sapiens, UniProt Q96SW2+Q9UKS7); experiment: Helios assay (Western blot degradation, MV-4-11 cells); type: cell-based; settings: 6-8 hours
T4 construct: Whole cell extracts were prepared using RIPA buffer; endogenous in cells; host or cells: MV-4-11
Experimental: as §1, §2, §3, §4

IL-1β = IL-1β in LPS-induced PBMCs / CD14+ monocytes (Meso Scale); type: cell-based; settings: LPS 100 ng/mL, 18-24 h
Experimental: (§5) Either frozen primary blood mononuclear cells (PBMCs) or frozen CD14+ mobilized peripheral blood monocytes were purchased from AllCells (PB003F, Normal Peripheral Blood MNC (Alameda, Calif.)). Cells were quick thawed, washed 1-time with RPMI-1640 (10% FBS/1% Pen-Strep) and plated in 96 well plates at 200,000 cells per well. Cells were pretreated with DMSO only or Compound 12 for 1 h and then induced with 100 ng/mL lipopolysaccharide (LPS) for 18-24 h. The supernatant was analyzed for IL-1β, IL-6, and TNFα, using Meso Scale assay according to manufacturer's protocol. The negative control wells were treated with DMSO.

IL-6 = IL-6 in LPS-induced PBMCs / CD14+ monocytes (Meso Scale); type: cell-based; settings: LPS 100 ng/mL, 18-24 h
Experimental: as §5

TNFα = TNFα in LPS-induced PBMCs / CD14+ monocytes (Meso Scale); type: cell-based; settings: LPS 100 ng/mL, 18-24 h
Experimental: as §5

IL-2 = IL-2 in anti-CD3 stimulated PBMCs (Mesoscale); type: cell-based, human; settings: fold difference from DMSO control, 24 h
Experimental: For the IL-2 analysis, 96 well plates were precoated with 1 μg/mL anti-human CD3 antibody (OKT3, eBioscience Inc., San Diego, Calif.). After washing with PBS, Compound 12 was added (50 μL/well) followed by PBMCs diluted at 3-4 million cells/mL (150 μL/well). Plates were incubated for 24 h and the supernatants collected for Mesoscale IL-2 analysis. IL-2 activity is measured as fold difference from the DMSO control.

T3 sequence (P48729 whole entry): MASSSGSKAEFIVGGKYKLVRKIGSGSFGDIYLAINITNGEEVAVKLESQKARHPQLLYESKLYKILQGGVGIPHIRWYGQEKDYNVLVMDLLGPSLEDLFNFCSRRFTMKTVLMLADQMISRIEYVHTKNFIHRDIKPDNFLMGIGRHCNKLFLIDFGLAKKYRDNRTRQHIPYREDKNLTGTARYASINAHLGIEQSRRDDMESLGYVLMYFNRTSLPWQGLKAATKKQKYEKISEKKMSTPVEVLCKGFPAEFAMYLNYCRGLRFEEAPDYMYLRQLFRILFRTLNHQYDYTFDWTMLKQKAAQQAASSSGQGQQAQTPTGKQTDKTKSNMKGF
T3 sequence (Q96SW2 whole entry): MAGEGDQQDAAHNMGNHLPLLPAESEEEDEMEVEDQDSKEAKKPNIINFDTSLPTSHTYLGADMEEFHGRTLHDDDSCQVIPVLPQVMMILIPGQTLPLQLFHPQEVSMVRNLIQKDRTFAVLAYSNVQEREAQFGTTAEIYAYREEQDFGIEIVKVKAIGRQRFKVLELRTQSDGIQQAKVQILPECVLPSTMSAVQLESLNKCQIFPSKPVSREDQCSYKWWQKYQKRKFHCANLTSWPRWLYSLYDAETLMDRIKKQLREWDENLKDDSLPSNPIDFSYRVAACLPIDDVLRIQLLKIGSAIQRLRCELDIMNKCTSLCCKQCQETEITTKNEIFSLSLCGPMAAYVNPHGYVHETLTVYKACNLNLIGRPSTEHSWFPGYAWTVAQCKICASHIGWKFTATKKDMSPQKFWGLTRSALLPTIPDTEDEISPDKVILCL
T3 sequence (Q16531 whole entry partner): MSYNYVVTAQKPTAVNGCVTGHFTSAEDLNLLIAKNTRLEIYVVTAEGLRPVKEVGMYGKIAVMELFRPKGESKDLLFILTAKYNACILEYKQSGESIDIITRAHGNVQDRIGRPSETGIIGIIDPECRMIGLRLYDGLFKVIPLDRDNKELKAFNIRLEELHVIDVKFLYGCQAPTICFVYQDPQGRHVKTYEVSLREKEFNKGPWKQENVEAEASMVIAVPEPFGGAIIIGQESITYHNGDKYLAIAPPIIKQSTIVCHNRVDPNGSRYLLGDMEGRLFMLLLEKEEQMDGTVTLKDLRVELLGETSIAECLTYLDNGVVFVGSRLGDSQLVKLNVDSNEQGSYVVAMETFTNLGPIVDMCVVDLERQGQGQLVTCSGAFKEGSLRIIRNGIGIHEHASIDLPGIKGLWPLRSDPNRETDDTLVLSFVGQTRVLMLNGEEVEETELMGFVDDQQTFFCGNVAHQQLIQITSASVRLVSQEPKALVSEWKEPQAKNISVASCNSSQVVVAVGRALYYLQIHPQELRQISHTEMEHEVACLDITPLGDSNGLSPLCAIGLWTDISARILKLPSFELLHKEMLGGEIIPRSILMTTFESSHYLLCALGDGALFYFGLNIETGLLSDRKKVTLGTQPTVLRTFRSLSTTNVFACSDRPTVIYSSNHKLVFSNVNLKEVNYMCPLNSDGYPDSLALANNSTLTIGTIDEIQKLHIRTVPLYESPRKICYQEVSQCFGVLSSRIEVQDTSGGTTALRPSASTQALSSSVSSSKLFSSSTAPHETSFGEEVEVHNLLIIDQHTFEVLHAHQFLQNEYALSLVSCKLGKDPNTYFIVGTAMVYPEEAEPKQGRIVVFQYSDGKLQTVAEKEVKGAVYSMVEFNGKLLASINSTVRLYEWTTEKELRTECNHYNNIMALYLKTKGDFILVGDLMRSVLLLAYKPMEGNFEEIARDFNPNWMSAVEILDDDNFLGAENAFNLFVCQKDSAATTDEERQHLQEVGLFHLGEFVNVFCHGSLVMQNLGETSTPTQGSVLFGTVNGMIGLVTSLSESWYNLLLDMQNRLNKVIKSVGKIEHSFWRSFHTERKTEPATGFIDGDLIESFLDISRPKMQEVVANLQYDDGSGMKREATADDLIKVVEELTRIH
T1 sequence (Q13422 whole entry): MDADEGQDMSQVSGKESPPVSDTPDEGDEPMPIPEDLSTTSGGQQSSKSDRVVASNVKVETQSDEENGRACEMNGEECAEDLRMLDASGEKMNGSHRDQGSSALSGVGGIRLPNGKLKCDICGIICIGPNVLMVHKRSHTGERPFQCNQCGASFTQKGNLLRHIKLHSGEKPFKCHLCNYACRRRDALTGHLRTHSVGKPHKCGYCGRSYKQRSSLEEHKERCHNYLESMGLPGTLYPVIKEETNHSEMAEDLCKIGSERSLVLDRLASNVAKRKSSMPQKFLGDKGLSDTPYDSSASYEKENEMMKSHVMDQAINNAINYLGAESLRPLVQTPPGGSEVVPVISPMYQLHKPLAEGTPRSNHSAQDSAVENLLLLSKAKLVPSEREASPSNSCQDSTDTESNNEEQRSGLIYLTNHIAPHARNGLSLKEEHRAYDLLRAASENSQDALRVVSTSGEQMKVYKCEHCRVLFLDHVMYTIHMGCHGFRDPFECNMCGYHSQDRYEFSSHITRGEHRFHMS
T1 sequence (Q96SW2 whole entry): as the sequence (Q96SW2 whole entry) above
T1 sequence (Q16531 whole entry partner): as the sequence (Q16531 whole entry partner) above
T4 sequence (Q9UKS7 whole entry): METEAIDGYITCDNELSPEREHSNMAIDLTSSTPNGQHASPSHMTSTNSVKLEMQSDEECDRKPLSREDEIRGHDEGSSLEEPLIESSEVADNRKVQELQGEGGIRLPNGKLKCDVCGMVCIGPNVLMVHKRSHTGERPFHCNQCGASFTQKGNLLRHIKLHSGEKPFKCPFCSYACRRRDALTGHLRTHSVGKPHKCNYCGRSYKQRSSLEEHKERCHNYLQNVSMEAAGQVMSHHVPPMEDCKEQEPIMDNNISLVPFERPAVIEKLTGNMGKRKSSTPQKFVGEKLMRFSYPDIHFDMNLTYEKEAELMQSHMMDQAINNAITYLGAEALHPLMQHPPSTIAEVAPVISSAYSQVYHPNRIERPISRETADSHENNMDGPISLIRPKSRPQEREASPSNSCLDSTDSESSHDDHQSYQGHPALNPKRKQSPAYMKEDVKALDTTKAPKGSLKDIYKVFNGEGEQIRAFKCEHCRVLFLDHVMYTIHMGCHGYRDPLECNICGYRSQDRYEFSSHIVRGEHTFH
T4 sequence (Q96SW2 whole entry): as the sequence (Q96SW2 whole entry) above
T4 sequence (Q16531 whole entry partner): as the sequence (Q16531 whole entry partner) above
T2 sequence (O43924 whole entry): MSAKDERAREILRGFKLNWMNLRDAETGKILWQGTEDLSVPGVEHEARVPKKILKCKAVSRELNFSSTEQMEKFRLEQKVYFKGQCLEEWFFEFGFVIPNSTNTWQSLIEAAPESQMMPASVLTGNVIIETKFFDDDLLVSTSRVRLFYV
T2 sequence (Q96SW2 whole entry): as the sequence (Q96SW2 whole entry) above
T2 sequence (Q16531 whole entry partner): as the sequence (Q16531 whole entry partner) above

Row | SMILES | IKAROS % Degradation at 15 μM (IKAROS) [%] | IKAROS % Degradation at 30 μM (IKAROS) [%] | PDE6D % Degradation at 15 μM (PDE6D) [%] | PDE6D % Degradation at 30 μM (PDE6D) [%] | MV-4-11 Cell Viability % DMSO at 15 μM (MV-4-11 cells) [% DMSO] | MV-4-11 Cell Viability % DMSO at 30 μM (MV-4-11 cells) [% DMSO] | CK1α % Degradation at 15 μM (CK1α) [%] | CK1α % Degradation at 30 μM (CK1α) [%] | other results
1 | Cc1nc2ccsc2c(=O)n1C1CCC(=O)NC1=O (stereo not drawn) [Compound 1, 3-(2-methyl-4-oxothieno[3,2-d]pyrimidin-3(4H)-yl)piperidine-2,6-dione] | – | – | – | – | – | – | – | – | GSPT1 % Degradation at 15 μM (GSPT1): 23%; GSPT1 % Degradation at 30 μM (GSPT1): 0%
2 | Cc1nc2cscc2c(=O)n1C1CCC(=O)NC1=O (stereo not drawn) [Compound 2, 3-(2-methyl-4-oxothieno[3,4-d]pyrimidin-3(4H)-yl)piperidine-2,6-dione] | 0 | 7 | 0 | 24 | – | – | – | – | –
3 | Cc1nc2sccc2c(=O)n1C1CCC(=O)NC1=O (stereo not drawn) [Compound 3, 3-(2-methyl-4-oxothieno[2,3-d]pyrimidin-3(4H)-yl)piperidine-2,6-dione] | – | – | 0 | 10 | 97 | 94 | – | – | –
4 | Cc1nc2cc(Br)sc2c(=O)n1C1CCC(=O)NC1=O (stereo not drawn) [Compound 4, 3-(6-bromo-2-methyl-4-oxothieno[3,2-d]pyrimidin-3(4H)-yl)piperidine-2,6-dione] | – | – | 49 | 75 | 100 | 97 | – | – | –
5 | Cc1nc2scc(Br)c2c(=O)n1C1CCC(=O)NC1=O (stereo not drawn) [Compound 5, 3-(5-bromo-2-methyl-4-oxothieno[2,3-d]pyrimidin-3(4H)-yl)piperidine-2,6-dione] | – | – | 0 | 15 | – | – | – | – | –
6 | Cc1cc2c(=O)n(C3CCC(=O)NC3=O)c(C)nc2s1 (stereo not drawn) [Compound 6, 3-(2,6-dimethyl-4-oxothieno[2,3-d]pyrimidin-3(4H)-yl)piperidine-2,6-dione] | – | – | – | – | 89 | 91 | – | – | –
7 | Cc1sc2nc(C)n(C3CCC(=O)NC3=O)c(=O)c2c1N (stereo not drawn) [Compound 7, 3-(5-amino-2,6-dimethyl-4-oxothieno[2,3-d]pyrimidin-3(4H)-yl)piperidine-2,6-dione] | – | – | – | – | 97 | 96 | – | – | –
8 | Cc1nc2sc(Br)cc2c(=O)n1C1CCC(=O)NC1=O (stereo not drawn) [Compound 8, 3-(6-bromo-2-methyl-4-oxothieno[2,3-d]pyrimidin-3(4H)-yl)piperidine-2,6-dione] | – | – | – | – | – | – | 8 | 0 | –
9 | Cc1nc2c(N)csc2c(=O)n1C1CCC(=O)NC1=O (stereo not drawn) [Compound 9, 3-(7-amino-2-methyl-4-oxothieno[3,2-d]pyrimidin-3(4H)-yl)piperidine-2,6-dione] | – | – | – | – | – | – | 24 | 12 | –
10 | Cc1nc2scc(N)c2c(=O)n1C1CCC(=O)NC1=O (stereo not drawn) [Compound 10, 3-(5-amino-2-methyl-4-oxothieno[2,3-d]pyrimidin-3(4H)-yl)piperidine-2,6-dione] | 49 | 53 | – | – | – | – | – | – | Helios % Degradation at 15 μM (Helios): 0%; Helios % Degradation at 30 μM (Helios): 16%
11 | Cc1nc2c(CN)scc2c(=O)n1C1CCC(=O)NC1=O.O=C(O)C(F)(F)F (stereo not drawn) [Compound 11, 3-(7-(aminomethyl)-2-methyl-4-oxothieno[3,4-d]pyrimidin-3(4H)-yl)piperidine-2,6-dione 2,2,2-trifluoroacetate] | – | – | 30 | 41 | 94 | 78 | 17 | 0 | –
12 | Cc1ccc(NC(=O)NCc2scc3c(=O)n(C4CCC(=O)NC4=O)c(C)nc23)cc1Cl (stereo not drawn) [Compound 12, 1-(3-chloro-4-methylphenyl)-3-((3-(2,6-dioxopiperidin-3-yl)-2-methyl-4-oxo-3,4-dihydrothieno[3,4-d]pyrimidin-7-yl)methyl)urea] | 28 | 60 | 0 | 21 | 0 | 0 | 16 | 45 | inhibition at 1 µM (IL-1β; 1 μM): 80%; inhibition at 10 µM (IL-1β; 10 μM): 92%; inhibition at 1 µM (IL-6; 1 μM): 17%; inhibition at 10 µM (IL-6; 10 μM): 53%; Helios % Degradation at 15 μM (Helios): 49%; Helios % Degradation at 30 μM (Helios): 69%; inhibition at 1 µM (TNFα; 1 μM): 79%; inhibition at 10 µM (TNFα; 10 μM): 91%; GSPT1 % Degradation at 15 μM (GSPT1): 96%; GSPT1 % Degradation at 30 μM (GSPT1): 97%; IL-2 Fold Change (IL-2; 1 μM): 3.6 Fold Change; IL-2 Fold Change (IL-2; 10 μM): 3.1 Fold Change
13 | Cc1ccc(NC(=O)NCc2cc3nc(C)n(C4CCC(=O)NC4=O)c(=O)c3s2)cc1Cl (stereo not drawn) [Compound 13, 1-(3-chloro-4-methylphenyl)-3-((3-(2,6-dioxopiperidin-3-yl)-2-methyl-4-oxo-3,4-dihydrothieno[3,2-d]pyrimidin-6-yl)methyl)urea] | 65 | 55 | 4 | 9 | 2 | 0.73 | 31 | 35 | Helios % Degradation at 15 μM (Helios): 50%; Helios % Degradation at 30 μM (Helios): 21%; GSPT1 % Degradation at 15 μM (GSPT1): 87%; GSPT1 % Degradation at 30 μM (GSPT1): 87%
